Laboratory results reported in patent US20260356824A1, “COMPOUNDS FOR TREATING FIBROTIC DISEASES” (Meta-Immue Inc., priority 2023, published 2026).

Key:
[1] = Liver microsomal stability, rat; type: in vitro ADME; settings: rat liver microsomes; 30 min; percent of parent remaining; read-out: Liver Microsomal stability (%), % of remaining after 30 min, Rat
hLPAR1 = target: T1, hLPAR1 (Homo sapiens, UniProt Q92633); test: Ca2+ Flux Assay (B103 cells stably expressing hLPAR1); type: cell-based; settings: LPA-induced calcium release, Fura-2 AM, compound 20 min at RT
T1 construct: expressed in transfected cells
In short: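 Fura-2 AM (5 μM) loaded 40 min at RT in HBSS/20 mM HEPES/probenecid/0.3% fatty-acid-free BSA after 2 h serum starvation. Compounds preincubated 20 min at RT, then LPA […] added. Intracellular calcium mobilization read as fluorescence intensity.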

BSEP = target: T2, BSEP (Homo sapiens, UniProt O95342); test: Bile Salt Export Pump (BSEP) Assay, Sf9 insect cell vesicles expressing BSEP; type: in vitro ADME; settings: 10 μM test compound, probe substrate 1 μM [3H]-taurocholic acid, 15 min incubation
T2 construct: ATP-dependent uptake of radiolabelled probe substrate
In short: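 BSEP-expressing Sf9 vesicles were incubated at 37 °C with probe substrate and test article (0.5% DMSO) in HEPES-Tris pH 7.4 KNO3/Mg/sucrose buffer, and transport was started with 5 mM Mg-ATP or AMP. After rapid filtration, substrate was counted radiometrically; ATP-dependent rate = ATP minus mean AMP accumulation per incubation time, giving percent inhibition.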

[2] = Liver microsomal stability, human; type: in vitro ADME; settings: human liver microsomes; 30 min; percent of parent remaining; read-out: Liver Microsomal stability (%), % of remaining after 30 min, Human
A2058 cells = test: Chemotaxis Assay (LPA-induced migration of A2058 cells); type: cell-based; settings: Homo sapiens, 4 to 8 hours, crystal violet 590 nm
In short: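 A2058 cells, starved 24 hr and treated with test compound or vehicle, were placed on a fibronectin-coated membrane ([…]) above […] in DMEM. After 4–8 h migration, migrated cells were crystal violet stained and read at 590 nm. Values are relative percentage of control.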

T1 sequence (Q92633 whole entry): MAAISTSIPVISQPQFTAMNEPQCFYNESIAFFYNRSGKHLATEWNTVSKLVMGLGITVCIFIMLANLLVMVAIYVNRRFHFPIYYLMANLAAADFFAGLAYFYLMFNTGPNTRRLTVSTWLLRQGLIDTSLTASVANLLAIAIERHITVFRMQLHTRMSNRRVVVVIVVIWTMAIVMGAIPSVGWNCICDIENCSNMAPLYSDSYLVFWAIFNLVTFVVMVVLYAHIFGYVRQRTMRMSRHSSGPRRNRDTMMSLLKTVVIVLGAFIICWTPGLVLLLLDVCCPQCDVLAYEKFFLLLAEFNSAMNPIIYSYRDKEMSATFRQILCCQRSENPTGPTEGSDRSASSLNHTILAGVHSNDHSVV
T2 sequence (O95342 whole entry): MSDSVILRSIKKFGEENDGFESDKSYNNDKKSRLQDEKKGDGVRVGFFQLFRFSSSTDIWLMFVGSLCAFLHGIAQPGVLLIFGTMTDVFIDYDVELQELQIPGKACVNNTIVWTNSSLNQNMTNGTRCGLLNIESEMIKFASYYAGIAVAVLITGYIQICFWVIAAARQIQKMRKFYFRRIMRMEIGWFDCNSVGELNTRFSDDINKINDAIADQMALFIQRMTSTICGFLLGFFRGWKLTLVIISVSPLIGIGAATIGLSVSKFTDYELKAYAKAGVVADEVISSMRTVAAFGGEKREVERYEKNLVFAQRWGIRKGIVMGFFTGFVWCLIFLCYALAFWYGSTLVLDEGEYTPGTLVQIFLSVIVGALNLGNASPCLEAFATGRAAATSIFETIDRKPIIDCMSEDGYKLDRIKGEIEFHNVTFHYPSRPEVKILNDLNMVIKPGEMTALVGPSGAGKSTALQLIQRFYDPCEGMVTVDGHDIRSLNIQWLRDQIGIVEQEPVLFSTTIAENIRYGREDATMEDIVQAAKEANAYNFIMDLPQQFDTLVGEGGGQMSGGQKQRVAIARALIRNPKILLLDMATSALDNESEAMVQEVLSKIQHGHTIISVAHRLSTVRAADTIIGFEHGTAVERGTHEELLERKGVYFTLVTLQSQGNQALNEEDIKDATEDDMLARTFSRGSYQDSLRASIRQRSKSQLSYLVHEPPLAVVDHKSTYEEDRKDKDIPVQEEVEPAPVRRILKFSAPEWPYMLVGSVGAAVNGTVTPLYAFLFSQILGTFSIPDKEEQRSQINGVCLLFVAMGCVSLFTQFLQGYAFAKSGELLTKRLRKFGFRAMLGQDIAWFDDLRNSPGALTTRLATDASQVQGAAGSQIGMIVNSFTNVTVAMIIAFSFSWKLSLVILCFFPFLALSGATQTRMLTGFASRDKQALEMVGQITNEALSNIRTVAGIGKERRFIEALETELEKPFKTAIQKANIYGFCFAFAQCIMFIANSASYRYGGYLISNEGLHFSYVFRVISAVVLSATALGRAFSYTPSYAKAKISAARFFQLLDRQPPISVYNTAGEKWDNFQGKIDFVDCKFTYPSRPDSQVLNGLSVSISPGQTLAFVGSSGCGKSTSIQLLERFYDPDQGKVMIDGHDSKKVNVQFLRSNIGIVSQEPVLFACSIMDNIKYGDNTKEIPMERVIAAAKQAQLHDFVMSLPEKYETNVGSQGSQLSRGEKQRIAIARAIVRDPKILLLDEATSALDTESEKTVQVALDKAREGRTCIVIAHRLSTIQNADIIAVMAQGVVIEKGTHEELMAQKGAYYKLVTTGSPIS

| Compound | remaining at 0.5 h [1] [%] | IC50 (hLPAR1) [nM] | inhibition at 0.25 h, 10 µM (BSEP) [%] | remaining at 0.5 h [2] [%] | IC50 (A2058 cells) [nM] |
| --- | --- | --- | --- | --- | --- |
| Cc1noc(C2CCN(c3ccc(C4(C(=O)NS(=O)(=O)CCCO)CC4)cc3)CC2)c1NC(=O)O[C@H](C)c1ccccc1 [Compound 85] | 50 to 75 | < 10 | ≤ 25 | > 75 | < 100 |
| CNS(=O)(=O)NC(=O)C1(c2ccc(N3CCC(c4onc(C)c4NC(=O)O[C@H](C)c4ccccc4)CC3)cc2)CC1 [Compound 86] | > 75 | < 10 | 50 to 75 | > 75 | 100 to 500 |
| Cc1noc(C2CCN(c3ccc(C4(C(=O)O)CC4)cc3)CC2)c1NC(=O)O[C@H](C)c1ccccc1 [Compound 87, 1-(4-{4-[3-methyl-4-({[(1R)-1-phenylethoxy]carbonyl}amino)-1,2-oxazol-5-yl]piperidin-1-yl}phenyl)cyclopropane-1-carboxylic acid] | > 75 | < 10 | 25 to 50 | > 75 | < 100 |
| Cc1nsc(C2CCN(c3ccc(C4(C(=O)NS(=O)(=O)C(F)(F)F)CC4)cc3)CC2)c1NC(=O)O[C@H](C)c1ccccc1 [Compound 94] | 50 to 75 | < 10 | 75 to 100 | 50 to 75 | < 100 |
